Drawing on patent USRE39497E1, “Storage of materials” (Nektar Therapeutics, priority 1989, dated 2007), this text covers Tg value and Tg for three compounds.

Data set [1] is described as follows: Glass transition temperature Tg (differential scanning calorimeter). It counts as physicochemical. Conditions: determined by the applicant. From the text: Tg values can be determined with a differential scanning calorimeter and can be detected as a point at which a plot of heat input against temperature passes through an inflection point—giving a maximum of the first temperature derivative.

For data set [2] the following is noted: L. Slade and H. Levine, Pure Appl. Chem. 60 1841 (1988); cited from earlier work.

`OC[C@H]1O[C@@](CO)(O[C@H]2O[C@H](CO)[C@@H](O)[C@H](O)[C@H]2O)[C@@H](O)[C@@H]1O` [sucrose] registered a Tg value in data set [1] of 55 °C.
On to `OC[C@H]1O[C@H](O[C@H]2[C@H](O)[C@@H](O)C(O)O[C@@H]2CO)[C@H](O)[C@@H](O)[C@@H]1O` (mixture of isomers) [maltose], for which, in data set [2], the Tg was 43 °C.
With maltotriose, the Tg in data set [2] is 76 °C.
